Source: patent publication US20050075275A1, “Regulation of the apj receptor for use in the treatment or prophylaxis of cardiac diseases” (Bayer Aktiengesellschaft, priority 2001, published 2005)

Tested on: APJ Receptor
Test: In vivo investigations of the stimulation of the APJ receptor by apelin in anesthetized dogs (blood pressure, heart rate, coronary flow)
Experimental: Adult FBI (Foxhound-Beagle-Irish-Setter) dogs (20-30 kg) are initially anesthetized with thiopental Na (Trapanal, Byk-Gulden) 20-30 mg/kg i.v. Alcuronium chloride (Alloferin, Roche) 0.1 mg/kg is initially given i.v. for muscle relaxation. The animals are intubated and ventilated with a ⅓ O2/N2O mixture using an Engström respiratory pump with 15-18 breaths per min and a volume of 18-24 ml/kg. The ventilation is set accurately according to the arterial partial pressure of CO2, maintaining an average pCO2 of 35-45 mmHg. The maintenance anesthesia is done with isoflurane (Baxter) 1.5-3%. The body temperature is kept at 38° C.±0.1° C. The arterial blood pressure is measured via a catheder in the femoral artery. A thoracotomy is performed at the fifth intercostal space on the left side. The lung is retracted and fixed, and the pericardium is incised. A proximal section of the LAD (left coronary artery) distal to the first diagonal branch is exposed, and a calibrated electromagnetic flow probe (Gould Statham, model SP7515) is placed around the vessel and connected to a flowmeter (Statham, model SP-2202). A mechanical occluder is attached distal of the flow probe in such a way that no branches lie between flow probe and occluder.
Blood is taken and substances are administered through a catheder in the femoral vein. A peripheral ECG is recorded with subcutaneously fixed needles. A microtip pressure manometer (Millar model PC-350) is pushed through the left atrium in order to measure the left ventricular pressure. Measurement of the heart rate is controlled by the R wave of the ECG. The hemodynamic parameters and the coronary flow are recorded on a multichannel recorder throughout the experiment.
The experiment is started after a stabilization time of 1 hour. […] The heart rate, blood pressure and coronary flow are recorded and analyzed.

Substance: apelin
- coronary flow (10 μg/kg i.v. bolus): significant increase in the coronary flow
- heart rate (bolus and continuous infusion): without changing the heart rate
- blood pressure (bolus and infusion): reduction in the blood pressure
- coronary flow (infusion 1, 3, 5, 10 μg/kg/min for 10 min): dose-dependent increase in coronary flow
- infusion rate at which maximum increase in coronary flow is reached (infusion for 10 min): 3 µg/kg/min
